What was measured:
HCA3 [1] = target: HCA3 (UniProt P49019); experiment: pEC50 of agonist-induced pathway activation (ebBRET)
HCA3 [2] = target: HCA3 (UniProt P49019); experiment: Emax (maximal agonist-induced change in ebBRET relative to vehicle) (% of vehicle response (amplitude of change)); higher = larger response (for Gs, larger decrease in membrane ebBRET, i.e. stronger Gs activation)
FP [3] = target: FP (UniProt P43088); experiment: pEC50 of agonist-induced pathway activation (ebBRET)
FP [4] = target: FP (UniProt P43088); experiment: Emax (maximal agonist-induced change in ebBRET relative to vehicle) (% of vehicle response (amplitude of change)); higher = larger response (for Gs, larger decrease in membrane ebBRET, i.e. stronger Gs activation)
CRFR2 [5] = target: T1, CRFR2 (UniProt Q13324); experiment: pEC50 of agonist-induced pathway activation (ebBRET)
T1 sequence (whole entry): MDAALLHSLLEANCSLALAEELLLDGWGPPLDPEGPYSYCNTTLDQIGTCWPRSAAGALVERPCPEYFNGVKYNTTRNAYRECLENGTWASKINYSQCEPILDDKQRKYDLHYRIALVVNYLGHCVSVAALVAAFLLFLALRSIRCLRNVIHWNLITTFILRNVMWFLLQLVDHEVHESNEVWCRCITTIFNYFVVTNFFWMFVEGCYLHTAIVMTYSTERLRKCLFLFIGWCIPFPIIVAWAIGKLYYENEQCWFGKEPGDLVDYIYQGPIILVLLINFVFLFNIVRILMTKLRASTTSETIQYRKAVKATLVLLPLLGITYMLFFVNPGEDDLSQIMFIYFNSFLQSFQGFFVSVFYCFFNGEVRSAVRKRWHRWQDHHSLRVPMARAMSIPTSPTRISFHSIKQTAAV

CRFR2 [6] = target: T1, CRFR2; experiment: Emax (maximal agonist-induced change in ebBRET relative to vehicle) (% of vehicle response (amplitude of change)); higher = larger response (for Gs, larger decrease in membrane ebBRET, i.e. stronger Gs activation)

Sequence of FP (P43088 whole entry): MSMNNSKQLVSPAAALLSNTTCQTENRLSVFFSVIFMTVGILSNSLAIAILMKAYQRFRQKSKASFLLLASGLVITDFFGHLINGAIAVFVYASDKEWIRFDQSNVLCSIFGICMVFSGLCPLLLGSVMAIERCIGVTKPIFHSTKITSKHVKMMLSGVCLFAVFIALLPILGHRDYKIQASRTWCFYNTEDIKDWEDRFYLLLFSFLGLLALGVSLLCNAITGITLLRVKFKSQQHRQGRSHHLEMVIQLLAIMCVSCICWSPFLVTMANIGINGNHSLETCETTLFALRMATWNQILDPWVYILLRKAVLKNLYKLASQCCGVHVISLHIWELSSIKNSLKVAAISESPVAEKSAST
Sequence of HCA3 (P49019 whole entry): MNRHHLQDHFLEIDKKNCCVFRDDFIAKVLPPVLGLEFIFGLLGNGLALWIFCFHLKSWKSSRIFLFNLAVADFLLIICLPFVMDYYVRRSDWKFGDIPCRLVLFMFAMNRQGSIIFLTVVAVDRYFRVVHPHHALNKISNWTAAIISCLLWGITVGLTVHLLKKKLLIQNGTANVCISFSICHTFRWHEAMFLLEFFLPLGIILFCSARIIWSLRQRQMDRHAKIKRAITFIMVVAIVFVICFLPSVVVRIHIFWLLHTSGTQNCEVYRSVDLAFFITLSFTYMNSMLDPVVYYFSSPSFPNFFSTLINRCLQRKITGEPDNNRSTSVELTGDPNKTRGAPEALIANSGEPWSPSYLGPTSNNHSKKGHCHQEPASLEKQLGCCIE

CCCCCC(O)CC(=O)O (stereo unspecified) [3-HOA]
Conditions	Emax, HCA3 [2]	pEC50, HCA3 [1]
pathway (G protein / arrestin sensor): G13	97.9	4.08
pathway (G protein / arrestin sensor): Gi1	415	5.63
pathway (G protein / arrestin sensor): Gi2	190	5.71
pathway (G protein / arrestin sensor): GoA	187	5.5
pathway (G protein / arrestin sensor): GoB	317	5.45
pathway (G protein / arrestin sensor): Gz	178	5.25
pathway (G protein / arrestin sensor): βarr1/GRK2	605	3.49
pathway (G protein / arrestin sensor): βarr2	115	3.52
pathway (G protein / arrestin sensor): βarr2/GRK2	487	3.47

CCCCC[C@H](O)/C=C/[C@H]1C(=O)C[C@H](O)[C@@H]1C/C=C\CCCC(=O)O [PGD2]
Conditions	Emax, FP [4]	pEC50, FP [3]
pathway (G protein / arrestin sensor): G11	459	8.66
pathway (G protein / arrestin sensor): G12	104	8.38
pathway (G protein / arrestin sensor): G13	183	8.78
pathway (G protein / arrestin sensor): G14	578	8.17
pathway (G protein / arrestin sensor): G15	437	8.88
pathway (G protein / arrestin sensor): GoA	84.8	6.92
pathway (G protein / arrestin sensor): GoB	114	6.99
pathway (G protein / arrestin sensor): Gq	306	8.73
pathway (G protein / arrestin sensor): Gz	122	7.46

CC[C@H](C)[C@H](N)C(=O)N[C@H](C(=O)N[C@@H](CC(C)C)C(=O)N[C@@H](CO)C(=O)N[C@@H](CC(C)C)C(=O)N[C@@H](CC(=O)O)C(=O)N[C@H](C(=O)N1CCC[C@H]1C(=O)N[C@H](C(=O)NCC(=O)N[C@@H](CC(C)C)C(=O)N[C@@H](CC(C)C)C(=O)N[C@@H](CCC(N)=O)C(=O)N[C@H](C(=O)N[C@@H](CC(C)C)C(=O)N[C@@H](CC(C)C)C(=O)N[C@@H](CCC(=O)O)C(=O)N[C@@H](CCC(N)=O)C(=O)N[C@@H](C)C(=O)N[C@@H](CCCNC(=N)N)C(=O)N[C@@H](C)C(=O)N[C@@H](CCCNC(=N)N)C(=O)N[C@@H](C)C(=O)N[C@@H](C)C(=O)N[C@@H](CCCNC(=N)N)C(=O)N[C@@H](CCC(=O)O)C(=O)N[C@@H](CCC(N)=O)C(=O)N[C@@H](C)C(=O)N[C@H](C(=O)N[C@H](C(=O)N[C@@H](CC(N)=O)C(=O)N[C@@H](C)C(=O)N[C@@H](CCCNC(=N)N)C(=O)N[C@H](C(=O)N[C@@H](CC(C)C)C(=O)N[C@@H](C)C(=O)N[C@@H](CCCNC(=N)N)C(=O)N[C@H](C(=O)NCC(=O)N[C@@H](Cc1cnc[nH]1)C(=O)N[C@@H](CS)C(N)=O)C(C)C)[C@@H](C)CC)[C@@H](C)O)[C@@H](C)O)[C@@H](C)CC)[C@@H](C)CC)C(C)C)C(C)C [Urocortin II]
Conditions	Emax, CRFR2 [6]	pEC50, CRFR2 [5]
pathway (G protein / arrestin sensor): G15	725	8.77
pathway (G protein / arrestin sensor): Gi1	442	8.2
pathway (G protein / arrestin sensor): Gi2	206	8.28
pathway (G protein / arrestin sensor): GoA	159	8.33
pathway (G protein / arrestin sensor): GoB	263	8.37
pathway (G protein / arrestin sensor): Gs	57.3	10.3
pathway (G protein / arrestin sensor): Gz	72.8	8.2
pathway (G protein / arrestin sensor): βarr1/GRK2	1420	8.08
pathway (G protein / arrestin sensor): βarr2	1090	7.98
pathway (G protein / arrestin sensor): βarr2/GRK2	1440	8.16

From the supplement of paper PMC9005190
